Drawing on ChEMBL document CHEMBL4118091, “N-Acylbenzenesulfonamide Dihydro-1,3,4-oxadiazole Hybrids: Seeking Selectivity toward Carbonic Anhydrase Isoforms” (ACS Med Chem Lett, 2017), this text covers Ki for 15 molecules.

For test [1], the target named is Carbonic anhydrase 9 (Homo sapiens, UniProt Q16790). Nature of the test: Inhibition of recombinant human carbonic anhydrase 9 assessed as reduction in CO2 hydration pretreated for 15 mins followed by CO2 addition measured for 10 to 100 sec by Line-Weaver Burk plot analysis.
Test [2] concerns the target Carbonic anhydrase 1 (Homo sapiens, UniProt P00915). The experiment in a line: Inhibition of recombinant human carbonic anhydrase 1 assessed as reduction in CO2 hydration pretreated for 15 mins followed by CO2 addition measured for 10 to 100 sec by Line-Weaver Burk plot analysis.

A value given as a limit tells only on which side of the number the result lay.

Sequence of Carbonic anhydrase 1 (P00915 whole entry): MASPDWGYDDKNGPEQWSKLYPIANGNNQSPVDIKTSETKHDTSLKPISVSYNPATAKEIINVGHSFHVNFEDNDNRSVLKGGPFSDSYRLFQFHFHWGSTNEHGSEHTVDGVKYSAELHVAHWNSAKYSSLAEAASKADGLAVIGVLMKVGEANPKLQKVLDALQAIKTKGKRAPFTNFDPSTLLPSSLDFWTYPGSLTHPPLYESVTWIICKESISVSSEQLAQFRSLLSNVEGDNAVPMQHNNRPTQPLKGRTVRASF

Take `CC(=O)NS(=O)(=O)c1ccc(C2=NN(C(C)=O)C(c3ccc(F)cc3)O2)cc1` (centres undefined): in test [1], the Ki amounted to 43.6 nM.
On the same count and under the same terms, with `CC(=O)NS(=O)(=O)c1ccc(C2=NN(C(C)=O)C(c3ccc(F)cc3F)O2)cc1` (centres undefined) the figure was 373 nM.
As to `CC(=O)NS(=O)(=O)c1ccc(C2=NN(C(C)=O)C(c3cccc([N+](=O)[O-])c3)O2)cc1` (centres undefined), the inhibitory constant (Ki) in test [2] was more than 10000 nM; in test [1], 44.3 nM.
On to `COc1ccc(C2OC(c3ccc(S(=O)(=O)NC(C)=O)cc3)=NN2C(C)=O)cc1` (centres undefined), for which the Ki is more than 10000 nM in test [2] and 143 nM in test [1].
For `COc1ccccc1C1OC(c2ccc(S(=O)(=O)NC(C)=O)cc2)=NN1C(C)=O` (centres undefined), in test [1], the inhibition constant (Ki) came out at 378 nM.
`CC(=O)NS(=O)(=O)c1ccc(C2=NN(C(C)=O)C(c3ccc([N+](=O)[O-])cc3)O2)cc1` (centres undefined): in test [1], the inhibition constant Ki turned out to be 33.1 nM.
For `COc1cccc(C2OC(c3ccc(S(=O)(=O)NC(C)=O)cc3)=NN2C(C)=O)c1` (centres undefined), the Ki in test [1] worked out at 430 nM.
On to `CC(=O)NS(=O)(=O)c1ccc(C2=NN(C(C)=O)C(c3ccc(Cl)cc3)O2)cc1` (centres undefined), for which the Ki in test [1] came to 502 nM.
Consider `CC(=O)NS(=O)(=O)c1ccc(C2=NN(C(C)=O)C(c3ccc(C(F)(F)F)cc3)O2)cc1` (centres undefined), for which the values for the Ki in test [2] and in test [1] were more than 10000 nM and 468 nM, respectively.
Take `CC(=O)NS(=O)(=O)c1ccc(C2=NN(C(C)=O)C(c3ccccc3C)O2)cc1` (centres undefined): the Ki in test [1] turned out to be 489 nM.
The same measure, in the same setting: with `CC(=O)NS(=O)(=O)c1ccc(C2=NN(C(C)=O)C(c3ccc(C)cc3)O2)cc1` (centres undefined) the figure was 502 nM.
As to `CC(=O)NS(=O)(=O)c1ccc(C2=NN(C(C)=O)C(c3ccccc3[N+](=O)[O-])O2)cc1` (centres undefined), the Ki in test [2] was more than 10000 nM; in test [1], 159 nM.
`CC(=O)NS(=O)(=O)c1ccc(C2=NN(C(C)=O)C(c3ccc(Cl)cc3Cl)O2)cc1` (racemic): the Ki in test [1] came to 25 nM.
As to `CC(=O)NS(=O)(=O)c1ccc(C2=NN(C(C)=O)C(c3ccc(Cl)cc3Cl)O2)cc1` (single isomer, unassigned; (+)), in test [1], the inhibition constant Ki came out at 26.9 nM.
In the case of `CC(=O)NS(=O)(=O)c1ccc(C2=NN(C(C)=O)C(c3ccc(Cl)cc3Cl)O2)cc1` (single isomer, unassigned; (-)), the Ki in test [1] turned out to be 24.2 nM.

Usually Ki stands for the equilibrium dissociation constant of an inhibitor or competing ligand from its target.
